Assay results from patent publication US8394376B2, “Therapeutic agents for alzheimer's disease and cancer” (The University of Tokyo, priority 2006, dated 2013).

Key:
A549 cells = assay: Cell viability by the MTT method; assay type: cell-based, human; settings: final concentration 100 μM, 72 hours, vs untreated, FIG. 12
Experimental: HeLa cells or A549 cells (5×10^3 cells) were inoculated onto a 96-well multiplate and treated with DAPT (final concentration: 100 μM) for 72 hours. After the 72-hour treatment, MTT diluted with PBS was added to the plate so that the final MTT concentration was 500 μg/mL, followed by culturing at 37° C. for three to four hours. Thereafter, stop solution (10% SDS, 0.01 M HCl) was added to the plate for termination of reaction, and the plate was allowed to stand still at 37° C. overnight, followed by dissolution of produced formazan. The formazan solution was uniformly mixed through pipetting, and absorbance was measured at 550 nm, to thereby calculate cell viability. […] Subsequently, in order to confirm that this reduction in cell viability was attributed to inhibition of γ-secretase activity, endogenous nicastrin of A549 cells was knocked down through treatment with nicastrin-corresponding short interference RNA (siRNA), and change in cell viability was determined. […]
Subsequently, the effect of the above-prepared antibodies on survival of A549 cells was examined. Each of the antibodies was added to A549 cells so that the final antibody concentration was 10 μg/mL, and, 96 hours after addition of the antibody, cell viability was determined through the MTT method.

HEK/SC100G cells = assay: GAL4-UAS luciferase reporter assay in living cells; assay type: cell-based; settings: final concentration 10 μM
Description: A preproenkephalin-derived signal peptide was inserted into C99, and GAL4 (i.e., a yeast-derived transcription factor) was inserted immediately downstream of the transmembrance domain of C99, to thereby prepare a construct (SC100G). The construct (SC100G) was subcloned into pcDNA3.1/Hygro vector (Invitroger).
A UAS sequence was inserted upstream of luciferase in pGL3(R2.2) vector (Promega), to thereby prepare a construct (UAS-luc), and the construct was employed as a reporter construct. eGFP was subcloned into pcDNA3 (Invitrogen), and the thus-prepared pcDNA3-eGFP was employed as a control vector for monitoring the number of cells. […]
(§1) HEK/SC100G cells or HEK/NΔEGV cells were inoculated into a 48-well multiplate (2.5×10^4 cells). […] After culturing for 12 hours, cells and a culture supernatant were recovered, and the amount of Aβ was determined through a reporter assay or ELISA.
(§2) The recovered cells were lysed in a lysis buffer (Promega), and the resultant lysate was subjected to the reporter assay. […] The amount of luciferase luminescence was normalized by the concentration of protein (in the case of HEK/SC100G cells), or by the amount of eGFP luminescence (in the case of HEK/NΔEGV cells), to thereby yield relative light unit (RLU). […]

HeLa cells = assay: Cell viability by the MTT method; assay type: cell-based, human; settings: final concentration 100 μM, 72 hours, vs untreated, FIG. 12
Experimental: HeLa cells or A549 cells (5×10^3 cells) were inoculated onto a 96-well multiplate and treated with DAPT (final concentration: 100 μM) for 72 hours. After the 72-hour treatment, MTT diluted with PBS was added to the plate so that the final MTT concentration was 500 μg/mL, followed by culturing at 37° C. for three to four hours. Thereafter, stop solution (10% SDS, 0.01 M HCl) was added to the plate for termination of reaction, and the plate was allowed to stand still at 37° C. overnight, followed by dissolution of produced formazan. The formazan solution was uniformly mixed through pipetting, and absorbance was measured at 550 nm, to thereby calculate cell viability. […] Subsequently, in order to confirm that this reduction in cell viability was attributed to inhibition of γ-secretase activity, endogenous nicastrin of A549 cells was knocked down through treatment with nicastrin-corresponding short interference RNA (siRNA), and change in cell viability was determined. As a result, in the case of treatment with nicastrin siRNA, cell viability was reduced by about 20%, as compared with the case of treatment with siRNA having a random sequence (scramble) (FIG. 13).

HEK/NΔEGV cells = assay: GAL4-UAS luciferase reporter assay in living cells; assay type: cell-based; settings: final concentration 10 μM
Description: GAL4/VP16 was bound to NΔE (including N99), in which deletion occurs in the extracellular domain of Notch receptor and which serves as a direct substrate for γ-secretase in a ligand-independent manner, to thereby prepare a construct (NΔEGV, Taniguchi Y., Karlstrom K., Lundkvist J., Mizutani T., Otaka A., Vestling M., Bernstein A., Donoviel D., Lendahl U., Honjo T.: Notch receptor cleavage depends on but is not directly executed by presenilins. Proc. Natl. Acad. Sci. U.S.A 2002, 99: 4014). The construct (NΔEGV) was subcloned into pcDNA3.1 vector (pcDNA3.1-NΔEGV). […]
as §1, §2

For `C[C@H](NC(=O)Cc1cc(F)cc(F)c1)C(=O)N[C@H](C(=O)OC(C)(C)C)c1ccccc1` [DAPT], the cell viability (A549 cells) was “significantly lower”, the reporter activity (HEK/SC100G cells) was “inhibit reporter activity” and the cell viability (HeLa cells) was “no significant difference”. For the same compound, the reporter activity (HEK/NΔEGV cells) was “inhibit reporter activity”.
